This test has as its system BDF1 mice, L1210 terephthalanilide-resistant leukemia ip, survival T/C. In words: NCI In Vivo Anticancer Drug Screen. Data for tumor model L1210 Leukemia resistant to A Terephthalanilide; NSC 38280 (intraperitoneal) in B6D2F1 (BDF1) mice. To be noted: endpoint: mean survival time, higher = longer survival. As for the experimental part: The antitumor activity of compounds was measured in mice bearing transplantable tumors. Survival or tumor size were measured and the results are expressed as the measurement made in the treated group (T) divided by the measurement made in the vehicle treated control group (C). The tumor model used in this assay is L1210 Leukemia resistant to A Terephthalanilide; NSC 38280 (intraperitoneal) in B6D2F1 (BDF1) mice

The mark [1] stands for this setting: dose: 6.25 mg/kg/injection, schedule: Q01DX010 (ip), vehicle: saline.
Setting [2] is: dose: 12.5 mg/kg/injection, schedule: Q01DX010 (ip), vehicle: saline.
Where [3] appears, read: dose: 25.0 mg/kg/injection, schedule: Q01DX010 (ip), vehicle: saline.
Where [4] appears, read: dose: 2.0 mg/kg/injection, schedule: Q01DX010 (ip), vehicle: saline.
The mark [5] stands for this setting: dose: 4.0 mg/kg/injection, schedule: Q01DX010 (ip), vehicle: saline.
The mark [6] stands for this setting: dose: 16.0 mg/kg/injection, schedule: Q01DX010 (ip), vehicle: saline.
[7] abbreviates: dose: 5.0 mg/kg/injection, schedule: Q01DX Z (ip), vehicle: saline.
The mark [8] stands for this setting: dose: 25.0 mg/kg/injection, schedule: Q01DX Z (ip), vehicle: carboxymethylcellulose (CMC).
[9] abbreviates: dose: 50.0 mg/kg/injection, schedule: Q01DX Z (ip), vehicle: carboxymethylcellulose (CMC).
[10] abbreviates: dose: 100.0 mg/kg/injection, schedule: Q01DX Z (ip), vehicle: carboxymethylcellulose (CMC).

Values joined by “and” are separate entries in the source; they are usually repeats but may differ in a detail not shown here. Equal values may be shown once. Inconclusive results and toxic doses are left out.

For the molecule `O=NN(CCCl)C(=O)NCCCl`, the T/C under setting [1] was 224 % of control, the T/C under setting [2] is 105 % of control and the T/C under setting [3] was 89 % of control.

As to `C=CC(CN1CC1)OC(C)=O` (centres undefined), the T/C was 101 % of control under setting [4], 119 % of control under setting [5] and 114 % of control under setting [6].

Take `C=C1C[C@H]2[C@@H]3C=C(C)C4=CC(=O)CC[C@]4(C)[C@H]3CC[C@]2(C)[C@@]1(OC(C)=O)C(C)=O`: the T/C runs as follows: (dose: 62.5 mg/kg/injection, schedule: Q01DX010 (sc), vehicle: steriod suspending solution) 101 % of control; (dose: 125.0 mg/kg/injection, schedule: Q01DX010 (sc), vehicle: steriod suspending solution) 93 % of control; (dose: 250.0 mg/kg/injection, schedule: Q01DX010 (sc), vehicle: steriod suspending solution) 97 % of control; (dose: 500.0 mg/kg/injection, schedule: Q01DX010 (sc), vehicle: steriod suspending solution) 95 % of control.

`CCOC(=O)NP(=O)(N1CC1(C)C)N1CC1(C)C` (centres undefined): the T/C was 101 % of control under setting [7]; 115 % of control (dose: 10.0 mg/kg/injection, schedule: Q01DX Z (ip), vehicle: saline); 121 % of control (dose: 20.0 mg/kg/injection, schedule: Q01DX Z (ip), vehicle: saline); 151 % of control (dose: 40.0 mg/kg/injection, schedule: Q01DX Z (ip), vehicle: saline); 164 % of control (dose: 62.0 mg/kg/injection, schedule: Q01DX Z (ip), vehicle: saline); 236 % of control (dose: 125.0 mg/kg/injection, schedule: Q01DX Z (ip), vehicle: saline). The T/C by setting is: (dose: 250.0 mg/kg/injection, schedule: Q01DX Z (ip), vehicle: saline) 302 % of control; (dose: 500.0 mg/kg/injection, schedule: Q01DX Z (ip), vehicle: saline) 100 % of control.

As for `O[C@H](CN1CC1)[C@@H](O)CN1CC1`, the T/C by setting is: (dose: 0.18 mg/kg/injection, schedule: Q01DX Z (ip), vehicle: saline) 317 % of control; (dose: 0.25 mg/kg/injection, schedule: Q01DX Z (ip), vehicle: saline) 300 % of control; (dose: 0.37 mg/kg/injection, schedule: Q01DX Z (ip), vehicle: saline) 223 % of control; under setting [7], 188 % of control; (dose: 2.0 micrograms/kg/injection, schedule: Q01DX Z (ip), vehicle: saline) 109 % of control; (dose: 4.0 micrograms/kg/injection, schedule: Q01DX Z (ip), vehicle: saline) 101 % of control. Besides, the T/C (dose: 6.0 micrograms/kg/injection, schedule: Q01DX Z (ip), vehicle: saline) was 98 % of control; the T/C (dose: 9.0 micrograms/kg/injection, schedule: Q01DX Z (ip), vehicle: saline) was 110 % of control; the T/C (dose: 18.0 micrograms/kg/injection, schedule: Q01DX Z (ip), vehicle: saline) is 115 % of control; the T/C (dose: 37.0 micrograms/kg/injection, schedule: Q01DX Z (ip), vehicle: saline) is 103 % of control; the T/C (dose: 50.0 micrograms/kg/injection, schedule: Q01DX Z (ip), vehicle: saline) is 156 % of control; the T/C (dose: 62.5 micrograms/kg/injection, schedule: Q01DX010 (ip), vehicle: saline) is 120 % of control. Moreover, the T/C reads like this: (dose: 75.0 micrograms/kg/injection, schedule: Q01DX Z (ip), vehicle: saline) 154 % of control and 162 % of control; (dose: 125.0 micrograms/kg/injection, schedule: Q01DX010 (ip), vehicle: saline) 111 % of control; (dose: 180.0 micrograms/kg/injection, schedule: Q01DX Z (ip), vehicle: saline) 284 % of control; (dose: 210.0 micrograms/kg/injection, schedule: Q01DX Z (ip), vehicle: saline) 235 % of control; (dose: 500.0 micrograms/kg/injection, schedule: Q01DX010 (ip), vehicle: saline) 91 % of control.

As to `c1ccc(CNc2ncnc3[nH]ncc23)cc1`, the T/C (dose: 8.0 mg/kg/injection, schedule: Q01DX010 (ip), vehicle: saline) is 102 % of control and 107 % of control; the T/C (dose: 12.5 mg/kg/injection, schedule: Q01DX Z (ip), vehicle: carboxymethylcellulose (CMC)) is 97 % of control; the T/C under setting [6] is 103 % of control and 114 % of control; the T/C under setting [8] is 109 % of control; the T/C (dose: 32.0 mg/kg/injection, schedule: Q01DX010 (ip), vehicle: saline) is 107 % of control; the T/C (dose: 37.5 mg/kg/injection, schedule: Q01DX Z (ip), vehicle: carboxymethylcellulose (CMC)) was 116 % of control. Moreover, the T/C under setting [9] was 97 % of control; the T/C (dose: 64.0 mg/kg/injection, schedule: Q01DX010 (ip), vehicle: saline) was 99 % of control and 103 % of control.

Turning to `CCN(CC)c1ccc2cc3ccc(=[N+](CC)CC)cc-3oc2c1`, the T/C by setting is: (dose: 1.0 mg/kg/injection, schedule: Q01DX010 (ip), vehicle: saline) 98 % of control; under setting [4], 91 % of control; under setting [5], 96 % of control.

As for `CS(=O)(=O)OCCCCOS(C)(=O)=O`, the T/C under setting [1] was 98 % of control and 103 % of control; the T/C under setting [2] was 100 % of control and 102 % of control; the T/C under setting [3] was 93 % of control and 102 % of control; the T/C (dose: 50.0 mg/kg/injection, schedule: Q01DX010 (ip), vehicle: saline) is 98 % of control and 100 % of control.

Take `CC[n+]1ccccc1-c1ccc(NC(=O)c2ccc(C(=O)Nc3ccc(-c4ccccn4)cc3)cc2)cc1`: the T/C (dose: 2.5 mg/kg/injection, schedule: Q01DX010 (ip), vehicle: saline) was 115 % of control; the T/C (dose: 10.0 mg/kg/injection, schedule: Q01DX010 (ip), vehicle: saline) was 119 % of control; the T/C (dose: 20.0 mg/kg/injection, schedule: Q01DX010 (ip), vehicle: saline) was 92 % of control.

`CN(C)C(=S)N=Nc1c(O)[nH]c2ccccc12`: the T/C by setting is: under setting [8], 90 % of control; under setting [9], 98 % of control; under setting [10], 89 % of control.

Take `N#CCSc1ncnc2nc[nH]c12`: the T/C by setting is: under setting [8], 122 % of control; (dose: 30.0 mg/kg/injection, schedule: Q01DX010 (ip), vehicle: saline) 112 % of control and 113 % of control; (dose: 60.0 mg/kg/injection, schedule: Q01DX010 (ip), vehicle: saline) 109 % of control and 115 % of control; under setting [10], 150 % of control; (dose: 120.0 mg/kg/injection, schedule: Q01DX010 (ip), vehicle: saline) 91 % of control.

For the molecule `N[C@@H](Cc1ccc(N(CCCl)CCCl)cc1)C(=O)O`, the T/C was 252 % of control (dose: 2.0 mg/kg/injection, schedule: Q01DX Z (ip), vehicle: carboxymethylcellulose (CMC)); 155 % of control (dose: 4.0 mg/kg/injection, schedule: Q01DX Z (ip), vehicle: carboxymethylcellulose (CMC)); 187 % of control (dose: 8.0 mg/kg/injection, schedule: Q01DX Z (ip), vehicle: carboxymethylcellulose (CMC)); 169 % of control (dose: 12.0 mg/kg/injection, schedule: Q01DX Z (ip), vehicle: carboxymethylcellulose (CMC)); 91 % of control (dose: 18.0 mg/kg/injection, schedule: Q01DX Z (ip), vehicle: carboxymethylcellulose (CMC)).

Regarding `O=C(Nc1ccc(C(=O)Nc2ccc(C3=NCCCN3)cc2)cc1)Nc1ccc(C2=NCCCN2)cc1`, the T/C reads like this: (dose: 1.88 mg/kg/injection, schedule: Q01DX010 (ip), vehicle: saline) 93 % of control and 108 % of control; (dose: 3.75 mg/kg/injection, schedule: Q01DX010 (ip), vehicle: saline) 95 % of control and 114 % of control; (dose: 7.5 mg/kg/injection, schedule: Q01DX010 (ip), vehicle: saline) 122 % of control and 119 % of control; (dose: 15.0 mg/kg/injection, schedule: Q01DX010 (ip), vehicle: saline) 117 % of control.

Turning to `C[C@]12C=CC(=O)C=C1CC[C@@H]1[C@@H]2[C@@H](O)C[C@@]2(C)[C@H]1CC[C@]2(O)C(=O)CO`, the T/C runs as follows: (dose: 12.5 mg/kg/injection, schedule: Q01DX010 (sc), vehicle: steriod suspending solution) 100 % of control; (dose: 25.0 mg/kg/injection, schedule: Q01DX010 (sc), vehicle: steriod suspending solution) 100 % of control; (dose: 50.0 mg/kg/injection, schedule: Q01DX010 (sc), vehicle: steriod suspending solution) 98 % of control; (dose: 100.0 mg/kg/injection, schedule: Q01DX010 (sc), vehicle: steriod suspending solution) 95 % of control.

(Values after PubChem BioAssay AID282 (DTP/NCI, 2004).)
